These molecules were tested on PDE4 (assay: PDE4 inhibition, scintillation proximity assay (SPA)). Conditions: scintillation proximity assay (SPA); evaluated as classes A, B, C; read-out: PDE4 Inhibitory Activity (concentration for the inhibition rate of 50%).
Format: biochemical
Outline: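 Compound pre-diluted 1:10 in 50 mM Tris-HCl pH 7.4, 8.3 mM MgCl2, 1.7 mM EGTA, 3 mg/mL BSA, then incubated with PDE4 and [2,8-3H]-cAMP for 120 min at room temperature. Product captured on ZnSO4-containing YSi-SPA beads for 15 min; radioactivity counted against no-enzyme blank and DMSO control.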
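Throughout, for PDE4 Inhibitory Activity (concentration for the inhibition rate of 50%): A below 100 nM B 100 to below 1000 nM C 1000 nM or more.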

Compared with `O=C(O)c1cc(-c2nccs2)c2oc(N3CC4CCCC(C3)N4)nc2c1OC(F)(F)F` [Example 191, 2-(3,9-Diazabicyclo[3.3.1]nonan-3-yl)-7-(thiazol-2-yl)-4-(trifluoromethoxy)benzo[d]oxazole-5-carboxylic acid], `CC(C)(O)c1cc(-c2nccs2)c2oc(N3CC4CCCC(C3)N4)nc2c1OC(F)(F)F` [Example 197, 2-(2-(3,9-Diazabicyclo[3.3.1]nonan-3-yl)-7-(thiazol-2-yl)-4-(trifluoromethoxy)benzo[d]oxazol-5-yl)propan-2-ol] is lower in IC50: 0.1 to 1 µM for the first, under 0.1 µM for the second.

`COC(c1ccc(-c2nccs2)c2oc(N3CC4CC(C3)N4)nc12)C(F)(F)F` (centres unmarked) [Example 123, 2-(3,6-Diazabicyclo[3.1.1]heptan-3-yl)-7-(thiazol-2-yl)-4-(2,2,2-trifluoro-1-methoxyethyl)benzo[d]oxazole] and `OC(c1ccc(-c2nccs2)c2oc(N3CC4CC(C3)N4)nc12)C(F)(F)F` (centres unmarked) [Example 121, 1-(2-(3,6-Diazabicyclo[3.1.1]heptan-3-yl)-7-(thiazol-2-yl)benzo[d]oxazol-4-yl)-2,2,2-trifluoroethan-1-ol] cannot be ordered by IC50: under 0.1 µM for the first, under 0.1 µM for the second.

`CC(C)(O)c1cc(-c2nccs2)c2oc(N3CC4CCCC(C3)N4)nc2c1C(F)(F)F` [Example 166, 2-(2-(3,9-Diazabicyclo[3.3.1]nonan-3-yl)-7-(thiazol-2-yl)-4-(trifluoromethyl)benzo[d]oxazol-5-yl)propan-2-ol] and `FC(F)(F)c1ccc(-c2nccs2)c2oc(N3CC4CCCC(C3)N4)nc12` [Example 33, 2-(3,9-Diazabicyclo[3.3.1]nonan-3-yl)-7-(thiazol-2-yl)-4-(trifluoromethyl)benzo[d]oxazole] cannot be ordered by IC50: under 0.1 µM for the first, under 0.1 µM for the second.

`N#CCOC(c1ccc(-c2nccs2)c2oc(N3CC4CCC(C3)N4)nc12)C(F)(F)F` (centres unmarked) [Example 228, 2-(1-(2-(3,8-Diazabicyclo[3.2.1]octan-3-yl)-7-(thiazol-2-yl)benzo[d]oxazol-4-yl)-2,2,2-trifluoroethoxy)acetonitrile] and `NC(=O)COC(c1ccc(-c2nccs2)c2oc(N3CC4CC(C3)N4)nc12)C(F)(F)F` (centres unmarked) [Example 256, 2-(1-(2-(3,6-Diazabicyclo[3.1.1]heptan-3-yl)-7-(thiazol-2-yl)benzo[d]oxazol-4-yl)-2,2,2-trifluoroethoxy)acetamide] cannot be ordered by IC50: under 0.1 µM for the first, under 0.1 µM for the second.

`OCc1cc(-c2nccs2)c2oc(N3CC4CCC(C3)N4)nc2c1OC(F)(F)F` [Example 201, (2-(3,8-Diazabicyclo[3.2.1]octan-3-yl)-7-(thiazol-2-yl)-4-(trifluoromethoxy)benzo[d]oxazol-5-yl)methanol] and `FC(F)(F)Oc1c(Cl)cc(-c2nccs2)c2oc(N3CC4CCC(C3)N4)nc12` [Example 1, 2-(3,8-Diazabicyclo[3.2.1]octan-3-yl)-5-chloro-7-(thiazol-2-yl)-4-(trifluoromethoxy)benzo[d]oxazole] cannot be ordered by IC50: under 0.1 µM for the first, under 0.1 µM for the second.

`FC(F)(F)Oc1cc(-c2nccs2)c2oc(N3CC4CCC(C3)N4)nc2c1` [Example 54, 2-(3,8-Diazabicyclo[3.2.1]octan-3-yl)-7-(thiazol-2-yl)-5-(trifluoromethoxy)benzo[d]oxazole] and `FC(F)(F)COc1cc(-c2nccs2)c2oc(N3CC4CCC(C3)N4)nc2c1` [Example 66, 2-(3,8-Diazabicyclo[3.2.1]octan-3-yl)-7-(thiazol-2-yl)-5-(2,2,2-trifluoroethoxy)benzo[d]oxazole] cannot be ordered by IC50: under 0.1 µM for the first, under 0.1 µM for the second.

`COc1ccc(-c2nccs2)c2oc(N3CC4CC(C3)N4)nc12` [Example 76, 2-(3,6-Diazabicyclo[3.1.1]heptan-3-yl)-4-methoxy-7-(thiazol-2-yl)benzo[d]oxazole] and `FC(F)Oc1ccc(-c2nccs2)c2oc(N3CC4CC(C3)N4)nc12` [Example 278, 2-(3,6-Diazabicyclo[3.1.1]heptan-3-yl)-4-(difluoromethoxy)-7-(thiazol-2-yl)benzo[d]oxazole] cannot be ordered by IC50: under 0.1 µM for the first, under 0.1 µM for the second.

`COC(C)(C)c1cc(-c2cscn2)c2oc(N3CC4CCC(C3)N4)nc2c1OC(F)(F)F` [Example 298, 2-(3,8-Diazabicyclo[3.2.1]octan-3-yl)-5-(2-methoxypropan-2-yl)-7-(thiazol-4-yl)-4-(trifluoromethoxy)benzo[d]oxazole] and `CCOC(=O)c1cc(-c2nccs2)c2oc(N3CC4CCC(C3)N4)nc2c1OC(F)(F)F` [Example 186, Ethyl 2-(3,8-diazabicyclo[3.2.1]octan-3-yl)-7-(thiazol-2-yl)-4-(trifluoromethoxy)benzo[d]oxazole-5-carboxylate] cannot be ordered by IC50: under 0.1 µM for the first, under 0.1 µM for the second.

`COC(c1ccc(-c2nccs2)c2oc(N3CC4CCC(C3)N4)nc12)C(F)F` (centres unmarked) [Example 131, 2-(3,8-Diazabicyclo[3.2.1]octan-3-yl)-4-(2,2-difluoro-1-methoxyethyl)-7-(thiazol-2-yl)benzo[d]oxazole] and `CC(C)(O)COC(c1ccc(-c2nccs2)c2oc(N3CC4CC(C3)N4)nc12)C(F)F` (centres unmarked) [Example 127, 1-(1-(2-(3,6-Diazabicyclo[3.1.1]heptan-3-yl)-7-(thiazol-2-yl)benzo[d]oxazol-4-yl)-2,2-difluoroethoxy)-2-methylpropan-2-ol] cannot be ordered by IC50: under 0.1 µM for the first, under 0.1 µM for the second.

`FC(F)(F)c1ccc(-c2nccs2)c2oc(N3CC4CC(C3)N4)nc12` [Example 32, 2-(3,6-Diazabicyclo[3.1.1]heptan-3-yl)-7-(thiazol-2-yl)-4-(trifluoromethyl)benzo[d]oxazole] and `CC(O)(c1ccc(-c2nccs2)c2oc(N3CC4CC(C3)N4)nc12)C(F)F` (centres unmarked) [Example 296, 2-(2-(3,6-Diazabicyclo[3.1.1]heptan-3-yl)-7-(thiazol-2-yl)benzo[d]oxazol-4-yl)-1,1-difluoropropan-2-ol] cannot be ordered by IC50: under 0.1 µM for the first, under 0.1 µM for the second.

`COC(=O)c1ccc(-c2nccs2)c2oc(N3CC4CCC(C3)N4)nc12` [Example 237, Methyl 2-(3,8-diazabicyclo[3.2.1]octan-3-yl)-7-(thiazol-2-yl) benzo[d]oxazole-4-carboxylate] and `CC(C)(O)c1ccc(-c2nccs2)c2oc(N3CC4CCC(C3)N4)nc12` [Example 247, 2-(2-(3,8-Diazabicyclo[3.2.1]octan-3-yl)-7-(thiazol-2-yl)benzo[d]oxazol-4-yl)propan-2-ol] cannot be ordered by IC50: under 0.1 µM for the first, under 0.1 µM for the second.

`Oc1cc(-c2nccs2)c2oc(N3CC4CCCC(C3)N4)nc2c1` [Example 65, 2-(3,9-Diazabicyclo[3.3.1]nonan-3-yl)-7-(thiazol-2-yl) benzo[d]oxazol-5-ol] and `CC(O)c1cc(-c2nccs2)c2oc(N3CC4CCC(C3)N4)nc2c1` (centres unmarked) [Example 106, 1-(2-(3,8-Diazabicyclo[3.2.1]octan-3-yl)-7-(thiazol-2-yl)benzo[d]oxazol-5-yl)ethan-1-ol] cannot be ordered by IC50: under 0.1 µM for the first, under 0.1 µM for the second.

`COC(c1cc(-c2nccs2)c2oc(N3CC4CC(C3)N4)nc2c1OC(F)(F)F)C(F)F` (centres unmarked) [Example 208, 2-(3,6-Diazabicyclo[3.1.1]heptan-3-yl)-5-(2,2-difluoro-1-methoxyethyl)-7-(thiazol-2-yl)-4-(trifluoromethoxy) benzo[d]oxazole] and `CC(O)C(F)(F)Oc1ccc(-c2nccs2)c2oc(N3CC4CC(C3)N4)nc12` (racemic) [Example 250, 1-((2-(3,6-Diazabicyclo[3.1.1]heptan-3-yl)-7-(thiazol-2-yl)benzo[d]oxazol-4-yl)oxy)-1,1-difluoropropan-2-ol] cannot be ordered by IC50: under 0.1 µM for the first, under 0.1 µM for the second.

`CC(O)c1ccc(-c2nccs2)c2oc(N3CC4CC(C3)N4)nc12` (centres unmarked) [Example 240, 1-(2-(3,6-Diazabicyclo[3.1.1]heptan-3-yl)-7-(thiazol-2-yl)benzo[d]oxazol-4-yl)ethan-1-ol] and `CC(C)(O)CC(F)(F)Oc1ccc(-c2nccs2)c2oc(N3CC4CC(C3)N4)nc12` [Example 295, 4-((2-(3,6-Diazabicyclo[3.1.1]heptan-3-yl)-7-(thiazol-2-yl)benzo[d]oxazol-4-yl)oxy)-4,4-difluoro-2-methylbutan-2-ol] cannot be ordered by IC50: under 0.1 µM for the first, under 0.1 µM for the second.

`c1csc(-c2cc(OCC3COC3)cc3nc(N4CC5CCC(C4)N5)oc23)n1` [Example 70, 2-(3,8-Diazabicyclo[3.2.1]octan-3-yl)-5-(oxetan-3-ylmethoxy)-7-(thiazol-2-yl)benzo[d]oxazole] and `OC(O)(c1cc(-c2nccs2)c2oc(N3CC4CCCC(C3)N4)nc2c1)C(F)(F)F` [Example 156, 1-(2-(3,9-Diazabicyclo[3.3.1]nonan-3-yl)-7-(thiazol-2-yl)benzo[d]oxazol-5-yl)-2,2,2-trifluoroethane-1,1-diol] cannot be ordered by IC50: under 0.1 µM for the first, under 0.1 µM for the second.

`CC(=O)Nc1ccc(-c2nccs2)c2oc(N3CC4CCCC(C3)N4)nc12` [Example 34, N-(2-(3,9-Diazabicyclo[3.3.1]nonan-3-yl)-7-(thiazol-2-yl)benzo[d]oxazol-4-yl)acetamide] was tested, and the IC50 was under 0.1 µM.

Same assay, conditions: scintillation proximity assay; class symbols; read-out: PDE4 Inhibitory Activity

`COC(C)(C)C(F)(F)Oc1ccc(-c2nccs2)c2oc(N3CC4CC(C3)N4)nc12` [Example 393, 2-(3,6-diazabicyclo[3.1.1]heptan-3-yl)-4-(1,1-difluoro-2-methoxy-2-methylpropoxy)-7-(thiazol-2-yl) benzo[d]oxazole] and `FC(F)(/C=C/c1cccnc1)Oc1ccc(-c2nccs2)c2oc(N3CC4CC(C3)N4)nc12` [Example 406, (E)-2-(3,6-diazabicyclo [3.1.1]heptan-3-yl)-4-((1,1-difluoro-3-(pyridin-3-yl)allyl)oxy)-7-(thiazol-2-yl) benzo[d] oxazole] cannot be ordered by IC50: under 0.1 µM for the first, under 0.1 µM for the second.

Compared with `ON1C2CCC1CN(c1nc3c(OC(F)(F)F)c(Cl)cc(-c4nccs4)c3o1)C2` [Example 375, 3-(5-chloro-7-(thiazol-2-yl)-4-(trifluoro-methoxy)benzo[d]oxazol-2-yl)-3,8-diazabicyclo[3.2.1] octan-8-ol], `CC(C)(O)c1cc(-c2nccs2)c2oc(N3CC4CCC(C3)N4O)nc2c1C(F)(F)F` [Example 381, 3-(5-(2-hydroxy-propan-2-yl)-7-(thiazol-2-yl)-4-(trifluoromethyl)benzo[d]oxazol-2-yl)-3,8-diaza-bicyclo[3.2.1] octan-8-ol] is higher in IC50: under 0.1 µM for the first, over 1 µM for the second.
